Test results reported in patent US20260078103A1, “ISOQUINOLONES AS PI3K INHIBITORS” (OnKure, Inc., priority 2022, published 2026).
Read-outs that look alike come from different tables or passages of the source.

How the values were obtained:
Format in all cases: cell-based
[1] = test system: phosphorylation of AKT (pAKT) in SKBR3 cells express WT PI3Ka; assay: In vitro cell pAKT (Ser473) HTRF, SKBR3 cells; settings: cellular pAKT
Method in brief: (§1)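 T47D cells (RPMI, 10% FBS, 0.2 units/mL insulin) or SKBR3 cells (McCoy's 5a, 10% FBS) were seeded onto 10-point compound dilutions and incubated 6 h at 37 °C. After lysis, pAKT was detected overnight by HTRF (Eu cryptate/d2). IC50 was fitted from % inhibition relative to 0.1% DMSO and 10 uM alpelisib controls.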

[2] = test system: T47D cells expressing mutant PI3Ka (H1047R); assay: In vitro cell proliferation, T47D cells (CellTiter-Glo); settings: inhibition of proliferation, read-out: Avg T-47D EC50
Method in brief: (§2)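 T47D cells in RPMI/10% FBS/insulin (0.2 units/mL) or SKBR3 in McCoys 5a/10% FBS, 1,500 cells/well, grown 72 h at 37 °C with 10-point compound dilutions. CellTiter-Glo luminescence; % inhibition normalised to 0.1% DMSO and 10 uM Alpelisib, EC50 from four-parameter curve fit.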

[3] = test system: phosphorylation of AKT (pAKT) in T47D cells expressing mutant PI3Ka (H1047R); assay: In vitro cell pAKT (Ser473) HTRF, T47D cells; settings: cellular pAKT, T47D cells, mutant PI3Ka (H1047R), 6 hours, read-out: Avg T-47D IC50
Method in brief: as §1

[4] = test system: SKBR3 cells express WT PI3Ka; assay: In vitro cell proliferation, SKBR3 cells (CellTiter-Glo); settings: inhibition of proliferation
Method in brief: as §2

IC50 ([1]; Homo sapiens, SK-BR-3, 6 h) [nM]	EC50 ([2]; Homo sapiens, T47D, 72 h) [nM]	IC50 ([3]; Homo sapiens, T47D, 6 h) [nM]	EC50 ([4]; Homo sapiens, SK-BR-3, 72 h) [nM]	IC50 ([1]; 6 hours) [nM]	EC50 ([2]; 72 hours) [nM]	IC50 [3] [nM]	EC50 ([4]; 72 hours) [nM]	Compound
2000 to 15000	1 to 500	1 to 500	2000 to 15000	–	–	–	–	Cc1cc([C@@H](C)Nc2ccccc2C(=O)O)c2cc(N3CCN(c4cnc(C(F)(F)F)nc4)CC3)n(C)c(=O)c2c1 [Example 509]
> 15000	1 to 500	1 to 500	> 15000	–	–	–	–	C[C@@H](Nc1ccccc1C(=O)O)c1cc(F)cc2c(=O)n(C)c(N3CCN(CC(F)(F)F)C(C)(C)C3)cc12 [Example 510]
2000 to 15000	1 to 500	1 to 500	2000 to 15000	–	–	–	–	Cc1cc(N2CCN(c3cc4c([C@@H](C)Nc5ccccc5C(=O)O)cc(F)cc4c(=O)n3C)CC2)on1 [Example 512]
> 15000	1 to 500	1 to 500	> 15000	–	–	–	–	COc1ncc(-c2cc3c([C@@H](C)Nc4ccccc4C(=O)O)cc(F)cc3c(=O)n2C)s1 [Example 513]
> 15000	1 to 500	1 to 500	2000 to 15000	–	–	–	–	Cc1cnc(-c2ncc(-c3cc4c([C@@H](C)Nc5ccccc5C(=O)O)cc(F)cc4c(=O)n3C)cc2F)cn1 [Example 515]
> 15000	1 to 500	1 to 500	> 15000	–	–	–	–	Cc1cc([C@@H](C)Nc2ccccc2C(=O)O)c2cc(-c3cnc(C(C)C)cn3)n(C)c(=O)c2c1 [Example 516]
> 15000	1 to 500	1 to 500	> 15000	–	–	–	–	Cc1cc([C@@H](C)Nc2ccccc2C(=O)O)c2cc(-c3cnc(C4CC4)cn3)n(C)c(=O)c2c1 [Example 517]
> 15000	1 to 500	1 to 500	> 15000	–	–	–	–	C[C@@H](Nc1ccccc1C(=O)O)c1cc(F)cc2c(=O)n(C)c(-c3cnc(-c4nccs4)c(F)c3)cc12 [Example 518]
–	–	–	–	> 15000	1 to 500	1 to 500	> 15000	Cc1ncc(-c2ncc(-c3cc4c([C@@H](C)Nc5ccccc5C(=O)O)cc(F)cc4c(=O)n3C)cc2F)s1 [Example 519]
–	–	–	–	> 15000	1 to 500	1 to 500	> 15000	Cc1cc(-c2ncc(-c3cc4c([C@@H](C)Nc5ccccc5C(=O)O)cc(F)cc4c(=O)n3C)cc2F)on1 [Example 520]
–	–	–	–	> 15000	1 to 500	1 to 500	2000 to 15000	C[C@@H](Nc1ccccc1C(=O)O)c1cc(F)cc2c(=O)n(C)c(C34CC(C(F)(F)F)(C3)C4)cc12 [Example 521]
> 15000	1 to 500	1 to 500	> 15000	–	–	–	–	CCc1ncc(-c2cc3c([C@@H](C)Nc4ccccc4C(=O)O)cc(F)cc3c(=O)n2C)s1 [Example 524]
> 15000	1 to 500	1 to 500	> 15000	–	–	–	–	Cc1cc([C@@H](C)Nc2ccccc2C(=O)O)c2c(F)c(C3CC3)n(C)c(=O)c2c1 [Example 529]
> 15000	1 to 500	1 to 500	> 15000	–	–	–	–	CCOc1ncc(-c2c(F)c3c([C@@H](C)Nc4ccccc4C(=O)O)cc(C)cc3c(=O)n2C)s1 [Example 536]
> 15000	1 to 500	1 to 500	> 15000	–	–	–	–	C[C@@H](Nc1ccccc1C(=O)O)c1cc(F)cc2c(=O)n(C)c(-c3cnc(C(F)F)s3)cc12 [Example 539]
> 15000	1 to 500	1 to 500	> 15000	–	–	–	–	C[C@@H](Nc1ccccc1C(=O)O)c1cc(F)cc2c(=O)n(C)c(-c3ccc(COC(F)(F)F)nc3)cc12 [Example 540]
–	–	–	–	2000 to 15000	1 to 500	1 to 500	2000 to 15000	C#Cc1ccc(N[C@H](C)c2cc(F)cc3c(=O)n(C)c(-c4ccc(OCC(F)(F)F)nc4)cc23)c(C(=O)O)n1 [Example 542]
–	–	–	–	> 15000	1 to 500	1 to 500	> 15000	C[C@@H](Nc1ccccc1C(=O)O)c1cc(F)cc2c(=O)n(C)c(-c3cnc(-c4cn(C)nc4F)c(F)c3)cc12 [Example 543]
> 15000	1 to 500	1 to 500	> 15000	–	–	–	–	C[C@@H](Nc1ccccc1C(=O)O)c1cc(F)cc2c(=O)n(C)c(-c3cnc(CF)s3)cc12 [Example 545]

Compound	IC50 ([1]; Homo sapiens, SK-BR-3, 6 h) [nM]	EC50 ([2]; Homo sapiens, T47D, 72 h) [nM]	IC50 ([3]; Homo sapiens, T47D, 6 h) [nM]	EC50 ([4]; Homo sapiens, SK-BR-3, 72 h) [nM]	IC50 ([1]; 6 hours) [nM]	EC50 ([2]; 72 hours) [nM]	IC50 [3] [nM]	EC50 ([4]; 72 hours) [nM]
C[C@@H](Nc1ccccc1C(=O)O)c1cc(F)cc2c(=O)n(C)c(N3CC4CCC(C3)N4CC(F)(F)F)cc12 [Example 511]	> 15000	1 to 500	1 to 500	2000 to 15000	–	–	–	–
